Assay results from ChEMBL document CHEMBL5058642, “Data for DCP probe TP-051” (2022).

Key:
[1] = target: D(2) dopamine receptor (Homo sapiens) (UniProt P14416); conditions: Compound concentration 10.0 uM
[2] = target: T1, D(4) dopamine receptor (Homo sapiens) (UniProt P21917); conditions: Compound concentration 10.0 uM
T1 sequence (whole entry): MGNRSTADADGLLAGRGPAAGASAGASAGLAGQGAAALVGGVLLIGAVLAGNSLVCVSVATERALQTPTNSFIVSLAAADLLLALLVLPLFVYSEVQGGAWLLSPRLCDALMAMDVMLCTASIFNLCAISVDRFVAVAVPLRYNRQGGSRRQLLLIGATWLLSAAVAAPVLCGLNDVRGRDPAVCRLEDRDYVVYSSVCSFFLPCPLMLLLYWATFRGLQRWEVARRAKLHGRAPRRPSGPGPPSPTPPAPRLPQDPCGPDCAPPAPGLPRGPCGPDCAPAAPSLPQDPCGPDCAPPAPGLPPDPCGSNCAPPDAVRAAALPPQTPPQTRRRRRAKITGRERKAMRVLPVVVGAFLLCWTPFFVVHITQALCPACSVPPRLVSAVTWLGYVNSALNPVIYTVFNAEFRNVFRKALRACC

[3] = target: Vasopressin V1b receptor (Homo sapiens) (UniProt P47901); test: Inhibition of Vasopressin V1B at 10 µM in the Eurofins-Panlabs radioligand binding assay (Eurofins_assay_287560); design: ligand concentration 1 nM; conditions: Compound concentration 10.0 uM
[4] = target: T2, Sodium-dependent dopamine transporter (Homo sapiens, UniProt Q01959); conditions: Compound concentration 10.0 uM
Homo sapiens [5] = organism: Homo sapiens; test: Chemokine CXCR1/2 (IL-8, Non-selective) Eurofins-Panlabs radioligand binding assay; conditions: Compound concentration 10.0 uM
[6] = target: Beta-3 adrenergic receptor (Homo sapiens) (UniProt P13945); conditions: Compound concentration 10.0 uM
[7] = target: T2, Sodium-dependent dopamine transporter; conditions: Compound concentration 10.0 uM; remark: listed apart in the source
Rattus norvegicus [8] = organism: Rattus norvegicus; test: Serotonin (5-Hydroxytryptamine) 5-HT1, Non-Selective Eurofins-Panlabs radioligand binding assay; assay type: protein assay; conditions: Compound concentration 10.0 uM
Homo sapiens [9] = organism: Homo sapiens; test: Somatostatin sst2 Eurofins-Panlabs radioligand binding assay; design: ligand concentration 0.03 nM; conditions: Compound concentration 10.0 uM
Homo sapiens [10] = organism: Homo sapiens; test: Estrogen ERbeta Eurofins-Panlabs radioligand binding assay; conditions: Compound concentration 10.0 uM
[11] = target: Beta-3 adrenergic receptor (Homo sapiens) (UniProt P13945); conditions: Compound concentration 10.0 uM; remark: listed apart in the source
Rattus norvegicus [12] = organism: Rattus norvegicus; test: Opiate, Non-Selective Eurofins-Panlabs radioligand binding assay; design: ligand concentration 1 nM; conditions: Compound concentration 10.0 uM
Bos taurus = organism: Bos taurus; test: Protein Serine/Threonine Kinase, PKA, Non-Selective Eurofins-Panlabs enzyme assay; assay type: protein-complex assay; design: substrate with concentration 370 µg/mL Histone Type III-S, incubation time 15 min, incubation temperature 25 °C; conditions: Compound concentration 10.0 uM
[13] = target: D(1A) dopamine receptor (Homo sapiens) (UniProt P21728); conditions: Compound concentration 10.0 uM
[14] = target: B2 bradykinin receptor (Homo sapiens) (UniProt P30411); test: Bradykinin B2 Eurofins-Panlabs radioligand binding assay; conditions: Compound concentration 10.0 uM
[15] = target: T3, Muscarinic acetylcholine receptor M2 (Homo sapiens) (UniProt P08172); test: Muscarinic M2 Eurofins-Panlabs radioligand binding assay; conditions: Compound concentration 10.0 uM
T3 sequence (whole entry): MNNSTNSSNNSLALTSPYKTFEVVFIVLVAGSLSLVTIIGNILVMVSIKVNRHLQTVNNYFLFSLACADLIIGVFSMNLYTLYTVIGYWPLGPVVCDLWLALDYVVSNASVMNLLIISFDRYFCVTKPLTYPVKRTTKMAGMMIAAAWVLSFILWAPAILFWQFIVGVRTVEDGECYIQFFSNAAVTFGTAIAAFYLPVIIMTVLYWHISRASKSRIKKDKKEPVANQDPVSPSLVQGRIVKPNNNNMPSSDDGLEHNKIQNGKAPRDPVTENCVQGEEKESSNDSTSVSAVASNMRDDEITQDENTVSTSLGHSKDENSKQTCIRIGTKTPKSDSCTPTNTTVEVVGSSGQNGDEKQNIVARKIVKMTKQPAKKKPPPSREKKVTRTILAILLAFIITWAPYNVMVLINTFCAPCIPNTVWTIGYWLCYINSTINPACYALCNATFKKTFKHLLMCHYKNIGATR

[16] = target: D(1B) dopamine receptor (Homo sapiens) (UniProt P21918); conditions: Compound concentration 10.0 uM
Rattus norvegicus [17] = organism: Rattus norvegicus; test: Adrenergic α1, Non-selective Eurofins-Panlabs radioligand binding assay; assay type: protein assay; conditions: Compound concentration 10.0 uM
[18] = target: Endothelin receptor type B (Homo sapiens) (UniProt P24530); conditions: Compound concentration 10.0 uM
[19] = target: voltage-gated sodium channel, site 2 (Rattus norvegicus, UniProt F1LQQ7+O08562+O88420+O88457+P04774+P04775+P08104+P15389+P15390+Q62968); test: Inhibition of Sodium Channel, Site 2 at 10 µM in the Eurofins-Panlabs radioligand binding assay (Eurofins_assay_279510); assay type: protein assay; design: ligand concentration 5 nM, non-specific ligand with concentration 100 µM Veratridine, incubation time 60 min, incubation temperature 37 °C; conditions: male, Wistar, rat whole brain (except cerebellum) membranes, probe [3H] Batrachotoxinin, 5 nM, compound concentration 10 uM
[20] = target: Insulin receptor (Homo sapiens) (UniProt P06213); conditions: Rattus norvegicus; Compound concentration 10.0 uM
[21] = target: Carbonic anhydrase (Homo sapiens) (UniProt P00918+P43166+P00915+P07451+P23280+O43570+Q9ULX7+Q16790+P22748+Q8N1Q1+Q9Y2D0+P35218); test: Carbonic Anhydrase Eurofins-Panlabs enzyme assay; assay type: protein assay; conditions: Compound concentration 10.0 uM
[22] = target: 5-hydroxytryptamine receptor 2B (Homo sapiens) (UniProt P41595); conditions: Compound concentration 10.0 uM
[23] = target: Growth hormone secretagogue receptor type 1 (Homo sapiens) (UniProt Q92847); conditions: Compound concentration 10.0 uM
Rattus norvegicus [24] = organism: Rattus norvegicus; conditions: Compound concentration 10.0 uM
[25] = target: Muscarinic acetylcholine receptor M5 (Homo sapiens) (UniProt P08912); conditions: Compound concentration 10.0 uM
[26] = target: Coagulation factor X (Homo sapiens) (UniProt P00742); test: Peptidase, Factor Xa Eurofins-Panlabs enzyme assay; design: substrate with concentration; conditions: Compound concentration 10.0 uM
[27] = target: Alpha-2B adrenergic receptor (Homo sapiens) (UniProt P18089); conditions: Compound concentration 10.0 uM
[28] = target: Estrogen receptor (Homo sapiens) (UniProt P03372); conditions: Compound concentration 10.0 uM
[29] = target: 3-hydroxy-3-methylglutaryl-coenzyme A reductase (Homo sapiens) (UniProt P04035); test: HMG-CoA Reductase Eurofins-Panlabs enzyme assay; conditions: Rattus norvegicus; Compound concentration 10.0 uM
[30] = target: Sigma intracellular receptor 2 (Homo sapiens) (UniProt Q5BJF2); conditions: Compound concentration 10.0 uM
[31] = target: Substance-P receptor (Homo sapiens) (UniProt P25103); test: Tachykinin NK1 Eurofins-Panlabs radioligand binding assay; conditions: Compound concentration 10.0 uM
[32] = target: Glutamate NMDA receptor (Rattus norvegicus) (UniProt P35439+Q00959+Q00960+Q00961+Q62645+Q8VHN2+Q9R1M7); conditions: Compound concentration 10.0 uM

T2 sequence (Q01959 whole entry): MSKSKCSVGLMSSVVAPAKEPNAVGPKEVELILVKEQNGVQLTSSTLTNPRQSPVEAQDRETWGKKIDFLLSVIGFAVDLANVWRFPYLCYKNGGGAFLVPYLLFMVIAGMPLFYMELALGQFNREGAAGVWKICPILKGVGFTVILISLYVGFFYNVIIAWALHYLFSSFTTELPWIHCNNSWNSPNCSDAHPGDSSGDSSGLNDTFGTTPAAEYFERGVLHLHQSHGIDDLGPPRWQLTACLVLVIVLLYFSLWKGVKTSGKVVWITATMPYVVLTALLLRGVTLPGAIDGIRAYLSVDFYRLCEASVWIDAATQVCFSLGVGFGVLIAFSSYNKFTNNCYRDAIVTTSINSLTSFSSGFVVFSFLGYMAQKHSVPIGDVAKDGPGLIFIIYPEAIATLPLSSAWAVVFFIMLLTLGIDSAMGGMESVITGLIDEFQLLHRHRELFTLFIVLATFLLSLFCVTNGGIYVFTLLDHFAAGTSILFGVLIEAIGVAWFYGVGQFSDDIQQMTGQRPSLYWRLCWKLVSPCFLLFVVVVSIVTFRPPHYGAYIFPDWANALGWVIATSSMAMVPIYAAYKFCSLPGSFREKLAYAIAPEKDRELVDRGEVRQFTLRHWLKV
Chain of Beta-3 adrenergic receptor (Homo sapiens) (P13945 whole entry, looked up): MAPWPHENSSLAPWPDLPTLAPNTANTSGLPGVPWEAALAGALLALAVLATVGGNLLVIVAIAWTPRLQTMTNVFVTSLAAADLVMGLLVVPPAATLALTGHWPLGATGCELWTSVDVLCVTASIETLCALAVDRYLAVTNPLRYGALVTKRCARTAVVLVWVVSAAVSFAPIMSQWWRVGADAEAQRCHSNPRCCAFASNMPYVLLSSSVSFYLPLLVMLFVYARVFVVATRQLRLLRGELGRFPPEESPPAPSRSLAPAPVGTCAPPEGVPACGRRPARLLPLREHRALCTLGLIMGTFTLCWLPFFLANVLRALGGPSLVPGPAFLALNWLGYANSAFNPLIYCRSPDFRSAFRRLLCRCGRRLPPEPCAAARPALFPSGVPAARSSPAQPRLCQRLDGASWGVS
Chain of Growth hormone secretagogue receptor type 1 (Homo sapiens) (Q92847 whole entry): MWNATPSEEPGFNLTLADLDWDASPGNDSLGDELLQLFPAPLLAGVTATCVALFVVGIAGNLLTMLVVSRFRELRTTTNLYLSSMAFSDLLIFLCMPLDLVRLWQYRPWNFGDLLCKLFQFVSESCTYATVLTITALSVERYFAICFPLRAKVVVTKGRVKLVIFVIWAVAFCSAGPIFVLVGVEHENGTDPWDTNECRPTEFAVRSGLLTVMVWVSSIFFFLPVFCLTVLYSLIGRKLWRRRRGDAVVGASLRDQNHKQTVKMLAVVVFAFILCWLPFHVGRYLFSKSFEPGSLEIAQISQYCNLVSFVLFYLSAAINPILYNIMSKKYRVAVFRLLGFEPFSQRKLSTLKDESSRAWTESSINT
Chain of Muscarinic acetylcholine receptor M5 (Homo sapiens) (P08912 whole entry): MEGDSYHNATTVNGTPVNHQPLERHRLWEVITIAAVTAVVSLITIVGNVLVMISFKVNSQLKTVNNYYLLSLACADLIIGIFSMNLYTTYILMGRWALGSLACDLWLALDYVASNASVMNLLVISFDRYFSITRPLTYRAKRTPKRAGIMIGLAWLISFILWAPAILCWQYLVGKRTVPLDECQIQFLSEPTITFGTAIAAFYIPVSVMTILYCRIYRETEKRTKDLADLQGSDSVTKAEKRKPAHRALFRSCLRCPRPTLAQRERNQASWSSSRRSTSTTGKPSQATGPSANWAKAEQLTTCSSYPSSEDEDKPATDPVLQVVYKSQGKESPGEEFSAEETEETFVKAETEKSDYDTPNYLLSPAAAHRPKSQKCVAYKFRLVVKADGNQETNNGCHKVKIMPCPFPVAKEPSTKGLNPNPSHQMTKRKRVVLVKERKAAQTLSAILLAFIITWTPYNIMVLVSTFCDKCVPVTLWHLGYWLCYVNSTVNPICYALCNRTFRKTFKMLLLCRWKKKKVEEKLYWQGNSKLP
Chain of Endothelin receptor type B (Homo sapiens) (P24530 whole entry): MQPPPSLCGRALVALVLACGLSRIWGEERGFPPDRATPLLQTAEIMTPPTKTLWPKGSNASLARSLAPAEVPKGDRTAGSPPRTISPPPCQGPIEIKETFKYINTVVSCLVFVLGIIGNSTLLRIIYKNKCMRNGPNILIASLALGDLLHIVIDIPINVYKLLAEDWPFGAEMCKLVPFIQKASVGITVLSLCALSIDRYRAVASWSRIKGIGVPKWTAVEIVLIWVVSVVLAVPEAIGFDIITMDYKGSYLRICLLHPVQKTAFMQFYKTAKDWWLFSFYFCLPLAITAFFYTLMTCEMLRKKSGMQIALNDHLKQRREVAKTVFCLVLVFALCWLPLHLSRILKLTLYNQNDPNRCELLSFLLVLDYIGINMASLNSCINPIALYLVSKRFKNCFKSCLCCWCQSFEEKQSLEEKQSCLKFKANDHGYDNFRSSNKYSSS
Chain of Sigma intracellular receptor 2 (Homo sapiens) (Q5BJF2 whole entry): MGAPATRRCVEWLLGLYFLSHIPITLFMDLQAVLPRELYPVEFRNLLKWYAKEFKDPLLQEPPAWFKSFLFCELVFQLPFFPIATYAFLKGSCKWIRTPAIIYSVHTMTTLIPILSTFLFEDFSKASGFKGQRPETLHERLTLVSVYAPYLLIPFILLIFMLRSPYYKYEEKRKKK
Chain of D(2) dopamine receptor (Homo sapiens) (P14416 whole entry): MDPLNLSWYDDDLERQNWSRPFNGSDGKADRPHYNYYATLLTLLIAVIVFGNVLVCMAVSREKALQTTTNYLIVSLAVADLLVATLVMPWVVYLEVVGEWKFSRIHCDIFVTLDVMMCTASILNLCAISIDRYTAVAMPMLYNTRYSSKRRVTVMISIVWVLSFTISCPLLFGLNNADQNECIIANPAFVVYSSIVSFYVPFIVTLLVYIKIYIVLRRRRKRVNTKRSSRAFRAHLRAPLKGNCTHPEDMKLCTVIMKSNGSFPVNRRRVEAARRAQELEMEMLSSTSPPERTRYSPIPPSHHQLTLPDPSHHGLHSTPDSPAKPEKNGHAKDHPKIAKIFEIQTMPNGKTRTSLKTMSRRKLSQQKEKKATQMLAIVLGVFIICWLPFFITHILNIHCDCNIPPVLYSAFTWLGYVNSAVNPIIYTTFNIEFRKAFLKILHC
Chain of 5-hydroxytryptamine receptor 2B (Homo sapiens) (P41595 whole entry): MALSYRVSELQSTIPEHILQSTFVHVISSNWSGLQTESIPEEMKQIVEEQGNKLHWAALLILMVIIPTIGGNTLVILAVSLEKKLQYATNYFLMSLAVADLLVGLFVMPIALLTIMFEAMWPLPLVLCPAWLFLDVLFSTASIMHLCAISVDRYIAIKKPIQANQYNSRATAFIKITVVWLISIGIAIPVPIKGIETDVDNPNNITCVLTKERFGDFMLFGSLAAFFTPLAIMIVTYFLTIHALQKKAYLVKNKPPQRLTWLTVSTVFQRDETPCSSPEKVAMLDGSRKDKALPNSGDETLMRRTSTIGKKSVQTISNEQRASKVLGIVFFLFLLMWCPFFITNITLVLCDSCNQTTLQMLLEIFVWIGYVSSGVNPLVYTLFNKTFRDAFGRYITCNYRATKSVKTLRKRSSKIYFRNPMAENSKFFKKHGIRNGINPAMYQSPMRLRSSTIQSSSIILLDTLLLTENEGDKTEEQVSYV
Chain of Alpha-2B adrenergic receptor (Homo sapiens) (P18089 whole entry): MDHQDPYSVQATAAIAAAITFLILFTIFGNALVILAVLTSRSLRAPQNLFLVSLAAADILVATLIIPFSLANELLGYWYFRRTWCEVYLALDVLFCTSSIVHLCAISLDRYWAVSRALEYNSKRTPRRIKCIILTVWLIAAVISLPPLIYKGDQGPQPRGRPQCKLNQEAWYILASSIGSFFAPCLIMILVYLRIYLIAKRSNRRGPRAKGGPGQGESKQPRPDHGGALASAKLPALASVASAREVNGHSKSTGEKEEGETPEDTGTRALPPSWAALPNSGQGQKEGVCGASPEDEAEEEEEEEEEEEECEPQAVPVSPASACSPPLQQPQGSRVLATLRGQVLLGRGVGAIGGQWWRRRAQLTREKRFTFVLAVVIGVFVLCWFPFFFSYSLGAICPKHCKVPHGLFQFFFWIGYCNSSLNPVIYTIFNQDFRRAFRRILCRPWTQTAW
Chain of D(1B) dopamine receptor (Homo sapiens) (P21918 whole entry): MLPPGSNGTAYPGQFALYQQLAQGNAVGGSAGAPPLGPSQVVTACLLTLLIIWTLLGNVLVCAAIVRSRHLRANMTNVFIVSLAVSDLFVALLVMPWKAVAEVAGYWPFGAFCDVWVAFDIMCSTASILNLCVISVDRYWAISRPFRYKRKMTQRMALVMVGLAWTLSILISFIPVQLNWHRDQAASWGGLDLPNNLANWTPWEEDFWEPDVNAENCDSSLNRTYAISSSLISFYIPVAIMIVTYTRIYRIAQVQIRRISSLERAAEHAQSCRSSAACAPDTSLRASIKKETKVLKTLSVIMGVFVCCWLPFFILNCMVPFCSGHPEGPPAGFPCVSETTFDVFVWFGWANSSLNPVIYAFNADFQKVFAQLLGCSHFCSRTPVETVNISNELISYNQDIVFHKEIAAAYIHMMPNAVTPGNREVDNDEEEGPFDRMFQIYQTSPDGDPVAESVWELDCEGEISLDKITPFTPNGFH
Chain of Vasopressin V1b receptor (Homo sapiens) (P47901 whole entry): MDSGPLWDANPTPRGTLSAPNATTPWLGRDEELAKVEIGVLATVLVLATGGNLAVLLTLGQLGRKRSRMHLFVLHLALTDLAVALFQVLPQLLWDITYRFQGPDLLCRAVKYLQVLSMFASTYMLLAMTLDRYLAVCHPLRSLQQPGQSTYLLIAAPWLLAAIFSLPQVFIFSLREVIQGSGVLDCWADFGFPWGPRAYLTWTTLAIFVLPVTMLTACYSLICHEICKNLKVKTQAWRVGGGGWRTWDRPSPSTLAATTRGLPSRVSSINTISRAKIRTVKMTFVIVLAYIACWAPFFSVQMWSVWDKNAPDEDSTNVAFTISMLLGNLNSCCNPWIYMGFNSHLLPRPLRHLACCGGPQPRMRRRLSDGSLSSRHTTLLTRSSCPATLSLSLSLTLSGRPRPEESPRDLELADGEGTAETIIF

Structure (SMILES)	inhibition [1]	inhibition [2]	inhibition [3]	inhibition [4]	inhibition (Homo sapiens [5])	inhibition [6]	inhibition [7]	inhibition (Rattus norvegicus [8])	inhibition (Homo sapiens [9])	inhibition (Homo sapiens [10])	inhibition [11]	inhibition (Rattus norvegicus [12])	inhibition [13]	inhibition [14]	inhibition [15]	inhibition [16]	inhibition (Rattus norvegicus [17])	inhibition [18]	inhibition at 60 min, 10 µM [19]	inhibition [20]	other results
Cc1cc(OC2CCS(=O)(=O)CC2)cc(C)c1-c1cccc(COc2ccc(CCC(=O)O)c(F)c2)c1	16.6%	85.4%	-4%	53.7%	3%	-5.43%	5%	16%	5%	20%	15%	-8%	13.7%	7%	4%	32.2%	-2%	0%	6% (not active)	7%	inhibition (Bos taurus): 5%; inhibition [21]: 27%; inhibition [22]: 21.5%; inhibition [23]: 2%; inhibition (Rattus norvegicus [24]): -4%; inhibition [25]: 20.4%; inhibition [26]: 2%; inhibition [27]: 13.1%; inhibition [28]: 3%; inhibition [29]: -5%; inhibition [30]: 19.6%; inhibition [31]: 17%; inhibition [32]: 8%
Cc1cc(OC2CCS(=O)(=O)CC2)cc(C)c1-c1cccc(COc2ccc(C(=O)O)c(F)c2)c1	8.6%	7.27%	-4%	42.2%	4%	6.71%	-8%	-9%	-6%	8%	-3%	3%	20.9%	-4%	-3%	17.5%	-1%	15%	-5% (not active)	0%	inhibition [22]: 3%; inhibition [23]: -1%; inhibition (Rattus norvegicus [24]): 7%; inhibition [25]: -4.74%; inhibition [27]: -0.21%; inhibition [28]: 7%; inhibition [30]: 1.49%; inhibition [31]: 3%; inhibition [32]: 7%
